Results taken from ChEMBL document CHEMBL3784979, “Design, synthesis and biological evaluation of novel benzimidazole-2-substituted phenyl or pyridine propyl ketene derivatives as antitumour agents” (Eur J Med Chem, 2016).
Calls of active or inactive are those of the source. No cut-off for these calls is given here.

Key:
[1] = Antiproliferative activity against p53 deficient human HCT116 cells after 48 hrs by MTT assay; type: functional, cell-based; settings: HCT-116, 48 h
[2] = Antiproliferative activity against human HCT116 cells after 48 hrs by MTT assay; type: functional, cell-based; settings: HCT-116, 48 h
[3] = tested on: MCF7; assay: Antiproliferative activity against human MCF7 cells after 48 hrs by MTT assay; type: functional, cell-based; settings: MCF7, 48 h
[4] = tested on: HepG2; assay: Antiproliferative activity against human HepG2 cells after 48 hrs by MTT assay; type: functional, cell-based; settings: HepG2, 48 h
[5] = target: T1, Tumour suppressor p53/oncoprotein Mdm2 (Homo sapiens) (UniProt P04637+Q00987); assay: Inhibition of MDM2/P53 protein interaction in human HCT116 cells at 0.5 to 5 uM after 24 hrs by immunoprecipitation analysis; type: cell-based; settings: HCT-116
T1 sequence (P04637 whole entry, looked up): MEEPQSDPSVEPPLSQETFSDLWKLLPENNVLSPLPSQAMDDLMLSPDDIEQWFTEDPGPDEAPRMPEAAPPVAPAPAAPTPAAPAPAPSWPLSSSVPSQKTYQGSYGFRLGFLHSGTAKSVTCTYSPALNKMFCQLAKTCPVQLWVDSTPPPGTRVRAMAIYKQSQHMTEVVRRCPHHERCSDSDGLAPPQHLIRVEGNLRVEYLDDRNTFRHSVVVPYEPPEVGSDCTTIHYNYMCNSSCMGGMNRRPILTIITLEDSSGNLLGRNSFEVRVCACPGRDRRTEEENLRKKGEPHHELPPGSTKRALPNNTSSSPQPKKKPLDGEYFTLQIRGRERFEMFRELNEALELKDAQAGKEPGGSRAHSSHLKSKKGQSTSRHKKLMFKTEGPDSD
T1 sequence (Q00987 whole entry, looked up): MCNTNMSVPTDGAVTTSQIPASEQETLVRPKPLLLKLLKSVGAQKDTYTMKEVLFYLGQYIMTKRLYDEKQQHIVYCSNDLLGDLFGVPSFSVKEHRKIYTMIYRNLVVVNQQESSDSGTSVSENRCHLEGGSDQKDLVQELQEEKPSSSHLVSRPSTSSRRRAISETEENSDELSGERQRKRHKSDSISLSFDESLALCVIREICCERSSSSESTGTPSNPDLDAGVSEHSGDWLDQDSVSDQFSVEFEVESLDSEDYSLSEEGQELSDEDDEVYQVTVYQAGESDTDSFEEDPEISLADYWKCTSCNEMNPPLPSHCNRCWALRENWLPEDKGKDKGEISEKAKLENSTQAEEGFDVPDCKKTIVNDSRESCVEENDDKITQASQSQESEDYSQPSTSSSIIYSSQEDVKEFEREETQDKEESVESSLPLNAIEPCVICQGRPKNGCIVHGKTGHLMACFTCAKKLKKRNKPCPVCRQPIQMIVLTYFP

[6] = Cell cycle arrest in human HCT116 cells assessed as accumulation at S phase at 0.58 uM after 72 hrs by propidium iodide staining based flow cytometry (reference value: 40.55 +/- 1.36%); type: functional; settings: HCT-116
[7] = tested on: Mus musculus; assay: Toxicity in BALB/c mouse assessed as change in body weight at 100 to 200 mg/kg, ip twice weekly for 4 weeks measured 24 hrs post last dose; type: organism-based; settings: in vivo
[8] = Toxicity in ip dosed BALB/c mouse by bliss test; type: organism-based; settings: in vivo
[9] = tested on: HCT-116; assay: Antitumor activity against human HCT116 cells xenografted in ip dosed BALB/c mouse assessed as tumor growth inhibition administered twice weekly for 4 weeks measured 24 hrs post last dose; type: functional, organism-based
[10] = Cell cycle arrest in human HCT116 cells assessed as accumulation at G2 phase at 0.58 uM after 72 hrs by propidium iodide staining based flow cytometry (reference value: 27.73 +/- 3.56%); type: functional; settings: HCT-116
[11] = Cell cycle arrest in human HCT116 cells assessed as accumulation at G1 phase at 0.58 uM after 72 hrs by propidium iodide staining based flow cytometry (reference value: 31.72 +/- 2.21%); type: functional; settings: HCT-116
[12] = Cell cycle arrest in human HCT116 cells assessed as accumulation at S phase after 72 hrs by propidium iodide staining based flow cytometry (reference value: 40.55 +/- 1.36%); type: functional; settings: HCT-116
[13] = Cell cycle arrest in human HCT116 cells assessed as accumulation at G1 phase after 72 hrs by propidium iodide staining based flow cytometry (reference value: 31.72 +/- 2.21%); type: functional; settings: HCT-116
[14] = Cell cycle arrest in human HCT116 cells assessed as accumulation at G2 phase after 72 hrs by propidium iodide staining based flow cytometry (reference value: 27.73 +/- 3.56%); type: functional; settings: HCT-116
[15] = target: T1, Tumour suppressor p53/oncoprotein Mdm2 (Homo sapiens); assay: Inhibition of MDM2/P53 protein interaction in human HCT116 cells at 0.1 to 1 uM after 24 hrs by immunoprecipitation analysis; type: cell-based; settings: HCT-116
[16] = Cell cycle arrest in human HCT116 cells assessed as accumulation at G2 phase at 0.06 uM after 72 hrs by propidium iodide staining based flow cytometry (reference value: 27.73 +/- 3.56%); type: functional; settings: HCT-116
[17] = Cell cycle arrest in human HCT116 cells assessed as accumulation at G1 phase at 0.06 uM after 72 hrs by propidium iodide staining based flow cytometry (reference value: 31.72 +/- 2.21%); type: functional; settings: HCT-116
[18] = tested on: HCT-116; assay: Potency index, ratio of 5-fluorouracil IC50 to compound IC50 for human HCT116 cells; type: functional
[19] = Cell cycle arrest in human HCT116 cells assessed as accumulation at S phase at 0.06 uM after 72 hrs by propidium iodide staining based flow cytometry (reference value: 40.55 +/- 1.36%); type: functional; settings: HCT-116
[20] = Cell cycle arrest in human HCT116 cells assessed as accumulation at S phase at 0.04 uM after 72 hrs by propidium iodide staining based flow cytometry (reference value: 40.55 +/- 1.36%); type: functional; settings: HCT-116
[21] = Antitumor activity against human HCT116 cells xenografted in BALB/c mouse assessed as tumor growth inhibition at 200 mg/kg, ip twice weekly for 4 weeks measured 24 hrs post last dose relative to control; type: functional; settings: HCT-116, ip, read-out: TGI
[22] = Cell cycle arrest in human HCT116 cells assessed as accumulation at G1 phase at 0.04 uM after 72 hrs by propidium iodide staining based flow cytometry (reference value: 31.72 +/- 2.21%); type: functional; settings: HCT-116
[23] = Cell cycle arrest in human HCT116 cells assessed as accumulation at G2 phase at 0.04 uM after 72 hrs by propidium iodide staining based flow cytometry (reference value: 27.73 +/- 3.56%); type: functional; settings: HCT-116
[24] = Antitumor activity against human HCT116 cells xenografted in BALB/c mouse assessed as tumor growth inhibition at 12.5 mg/kg, ip twice weekly for 4 weeks measured 24 hrs post last dose relative to control; type: functional; settings: HCT-116, ip, read-out: TGI
[25] = tested on: Mus musculus; assay: Toxicity in BALB/c mouse assessed as reduction in body weight at 12.5 mg/kg, ip twice weekly for 4 weeks measured 24 hrs post last dose; type: organism-based; settings: in vivo

Row | SMILES | IC50 [2] [µM] | IC50 [3] [µM] | IC50 [4] [µM] | other results
1 | Cc1ccccc1/C=C/C(=O)c1nc2ccccc2[nH]1 | 0.86 | 62.5 | 6.71 | IC50 [1]: 4390 nM
2 | COc1cccc(/C=C/C(O)c2nc3ccccc3[nH]2)c1 (stereo not drawn) | > 100 | > 100 | > 100 | 
3 | O=C(/C=C/c1ccc(Cl)cc1)c1nc2ccccc2[nH]1 | 6.79 | 24.8 | 12.5 | 
4 | O=C(/C=C/c1cccnc1)c1nc2ccccc2[nH]1 | 15.3 | 21.7 | 8.48 | 
5 | O=C(/C=C/c1ccccc1)c1nc2ccccc2[nH]1 | 0.2 | 39.8 | 6.3 | IC50 [1]: 2070 nM
6 | OC(/C=C/c1ccccn1)c1nc2ccccc2[nH]1 (stereo not drawn) | > 100 | > 100 | > 50 | 
7 | COc1cccc(/C=C/C(=O)c2nc3ccccc3[nH]2)c1 | 0.58 | 21.7 | 5.68 | inhibition [5]: Active; IC50 [1]: 4750 nM; Activity [6]: 19%; Activity [7]: Non-toxic; LD50 [8]: 1220 mg/kg; TGI [9]: Dose-dependent effect; Activity [10]: 20.5%; Activity [11]: 60.5%
8 | OC(/C=C/c1cccc(Cl)c1)c1nc2ccccc2[nH]1 (stereo not drawn) | > 100 | > 100 | > 100 | 
9 | COc1cccc(/C=C/C(=O)c2nc3ccccc3s2)c1 | > 100 | > 100 | > 100 | 
10 | CC(=O)O[C@H]1C(=O)[C@@]2(C)[C@H]([C@H](OC(=O)c3ccccc3)[C@]3(O)C[C@H](OC(=O)[C@H](O)[C@@H](NC(=O)c4ccccc4)c4ccccc4)C(C)=C1C3(C)C)[C@]1(OC(C)=O)CO[C@@H]1C[C@@H]2O [PACLITAXEL] | 0.0673 |  | 0.0217 | 
11 | COc1ccc(C2=N[C@H](c3ccc(Cl)cc3)[C@H](c3ccc(Cl)cc3)N2C(=O)N2CCNC(=O)C2)c(OC(C)C)c1 |  |  |  | Activity [12]: 24.8%; Activity [13]: 62.5%; Activity [14]: 12.7%
12 | O=C(/C=C/c1ccncc1)c1nc2ccccc2[nH]1 | 0.71 | 20.9 | 6.94 | IC50 [1]: 5610 nM
13 | O=C(/C=C/c1ccccc1Br)c1nc2ccccc2[nH]1 | 16.4 | 50.9 | 29.2 | 
14 | O=C(/C=C/c1cccc(Br)c1)c1nc2ccccc2[nH]1 | 0.79 | 19.3 | 1.59 | IC50 [1]: 2940 nM
15 | COc1ccccc1/C=C/C(=O)c1nc2ccccc2[nH]1 | 4.79 | 41.3 | 7.99 | 
16 | O=C(CCc1cccc(Cl)c1)c1nc2ccccc2[nH]1 | > 100 | > 100 | > 100 | 
17 | O=C(/C=C/c1ccccn1)c1nc2ccccc2o1 | > 100 | > 100 | > 100 | 
18 | O=C(/C=C/c1cccc(Cl)c1)c1nc2ccccc2o1 | > 100 | > 100 | > 100 | 
19 | O=C(CCc1ccccn1)c1nc2ccccc2[nH]1 | > 100 | > 100 | > 100 | 
20 | O=C(/C=C/c1ccccn1)c1nc2ccccc2[nH]1 | 0.06 | 3.64 | 0.34 | inhibition [15]: Active; Activity [16]: 16.6%; Activity [17]: 64.5%; IC50 [1]: 1450 nM; Activity [7]: Non-toxic; LD50 [8]: 634 mg/kg; Ratio IC50 [18]: 950; TGI [9]: Dose-dependent effect; Activity [19]: 18.9%
21 | O=C(/C=C/c1cccc(Cl)c1)c1nc2ccccc2[nH]1 | 0.03 | 9.8 | 0.75 | inhibition [15]: Active; Activity [20]: 17.2%; inhibition in vivo at 200 mg/kg [21]: 74.6%; IC50 [1]: 1950 nM; Activity [7]: Non-toxic; LD50 [8]: 692 mg/kg; Ratio IC50 [18]: 950; Activity [22]: 65%; TGI [9]: Dose-dependent effect; Activity [23]: 17.8%
22 | CCc1c2c(nc3ccc(OC(=O)N4CCC(N5CCCCC5)CC4)cc13)-c1cc3c(c(=O)n1C2)COC(=O)[C@]3(O)CC [IRINOTECAN] |  |  |  | inhibition in vivo at 12.5 mg/kg [24]: 70.2%; Activity [25]: 3.66 g
23 | COc1ccc(/C=C/C(=O)c2nc3ccccc3[nH]2)cc1 | 13.1 | > 100 | 7.41 | 
24 | O=C(/C=C/c1ccccn1)c1nc2ccccc2s1 | > 100 | > 100 | > 100 | 
25 | O=C(/C=C/c1cccc(Cl)c1)c1nc2ccccc2s1 | > 100 | > 100 | > 100 | 
26 | O=c1[nH]cc(F)c(=O)[nH]1 [FLUOROURACIL] | 57 | 223 | 174 | 
27 | O=C(/C=C/c1ccc(Br)cc1)c1nc2ccccc2[nH]1 | 19.6 | 52.7 | 10.9 | 
28 | COc1cccc(/C=C/C(=O)c2nc3ccccc3o2)c1 | > 100 | > 100 | > 100 | 
